According to patent US20260014144A1, “USE OF OV[…] PHARMACEUTICAL COMPOSITION THEREOF IN PREVENTION AND TREATMENT OF RENAL FIBROSIS” (ZHUJIANG HOSPITAL OF SOUTHERN MEDICAL UNIVERSITY, priority 2022, published 2026):
Structures can show the parent of a compound that is named as a salt.

Key:
[1] = system: unilateral ureteral obstruction (UUO) RF animal model; experiment: Therapeutic effect of ACT004 in unilateral ureteral obstruction (UUO) renal fibrosis mouse model; type: in vivo; details: UUO mice
Description: (§1) Sixty 8-week-old C57 mice (SPF grade) were supplied by the Laboratory Animal Center of Zhujiang Hospital, Southern Medical University, Guangzhou. Before the experiment, the animals were acclimated to the indoor environment for 7 days at a room temperature of 18-22° C. and a relative humidity of 65%. All mice had free access to water and were fed with regular feed (protein content: 3.14 mg/g).
Method for constructing UUO model: Under anesthesia with intraperitoneal injection of tribromoethanol, the surgical area for abdominal midline incision was shaved and disinfected. After making the abdominal midline incision, the left ureter was located, and the upper segment of the ureter was isolated. A complete ureteral obstruction was induced by double ligation using 4-0 silk sutures (UUO group). For mice in the sham group, the ureter was similarly exposed and isolated, but no ligation was performed. Layered suturing of the abdominal incision was performed, followed by disinfection with iodophor. Mice subjected to UUO surgery were randomly divided into the following 5 groups: a UUO group, a UUO+low-dose ACT004 (12.5 mg/kg·d) group, a UUO+medium-dose ACT004 (25 mg/kg·d) group, a UUO+high-dose ACT004 (50 mg/kg·d) group, and a sham group, with 6 mice in each group. Starting from day 4 after the surgery, intragastric administration was performed. The sham group and the UUO groups were given an equal volume of normal saline as a control treatment. On day 11 after the surgery, the left kidney tissues were collected.
(§2) According to the results of the preliminary experiment, the medium dose of ACT004 for mice was 25 mg/kg·d. Therefore, low-dose (12.5 mg/kg·d), medium-dose (25 mg/kg·d) and high-dose (50 mg/kg·d) groups were set. ACT004 was prepared into a solution using normal saline, and intragastrically administered once daily starting on day 4 after the surgery for a duration of 1 week. Mice in the sham, UUO and IRI groups were subjected to intragastric administration with an equal amount of normal saline for a duration of 1 week.
(§3) After 1 week of intragastric administration, kidney tissues were collected as follows: Anesthesia was conducted using single intraperitoneal injection of tribromoethanol at a concentration of 200 mg/kg. Blood was collected by enucleation, and serum was separated and stored at −20° C. or −70° C. An abdominal incision was made, and sterile gauze was used to move aside abdominal organs. Cold PBS was perfused through the heart until the organs turned white. Kidney tissues were then collected. The entire left kidney was weighed, then bisected along the median sagittal plane, and washed thoroughly with PBS, and the capsule was removed. The tissue was then fixed in 10% neutral formaldehyde buffer for subsequent pathological examination.
(§4) 2.2.1.4.1 Renal pathology: Masson staining was used to observe the renal pathological structures and collagen fiber deposition.
(§5) 2.2.1.4.2 Protein level detection: Ras GTPase superfamily member RALB, EMT-related index a-SMA, and fibrosis phenotype-related indexes Fibronectin and Collagen I.

[2] = system: ischemia-reperfusion injury (IRI) RF animal model; experiment: Therapeutic effect of ACT004 in ischemia-reperfusion injury (IRI) renal fibrosis mouse model; type: in vivo; details: IRI mice
Description: as §1
Method for constructing IRI model: Mice were anesthetized intraperitoneally with tribromoethanol. An abdominal midline incision or dorsal incision was made. The left renal vein was isolated, while the renal artery was clamped using an arterial clip. The mice were placed on a constant-temperature pad at 37.5° C. for 30 min, and the incision was covered with PBS-moistened gauze. After 30 min, the arterial clip was released, and the abdomen was closed after the recovery of renal congestion was observed. Mice subjected to IRI surgery were randomly divided into the following 5 groups: an IRI group, an IRI+low-dose ACT004 (12.5 mg/kg·d) group, an IRI+medium-dose ACT004 (25 mg/kg·d) group, an IRI+high-dose ACT004 (50 mg/kg·d) group, and a sham group, with 6 mice in each group. Starting from day 4 after the surgery, intragastric administration was performed. The sham group and the IRI groups were given an equal volume of normal saline as a control treatment. On day 10 after the surgery, the right kidney was removed, and on day 11 day after the surgery, the left kidney tissues were collected.
as §2, §3, §4, §5

[3] = system: renal tubular epithelial cells (NRK); experiment: Effect of ACT004 on TGF-β1-induced EMT in renal tubular epithelial cells; type: cell-based, mouse
Description: The immortalized mouse-derived renal tubular epithelial cell line was provided by the Professor Nie Xiaoli's research team at the School of Traditional Chinese Medicine, Southern Medical University.
The addition of TGF-β1 was accompanied by the administration of different concentrations of ACT004 intervention (2.5 μM, 5 μM, and 10 μM). The cells were divided into the following 6 groups: a blank control group, a blank control+ACT004 (5 μM) group, a TGF-β1 model group, and groups for TGF-β1+ different concentrations of ACT004 intervention (2.5 μM, 5 μM, and 10 µM).
Protein level detection: Ras GTPase superfamily member RALB, EMT-related index α-SMA, and fibrosis phenotype-related indexes Fibronectin and Collagen I.

[4] = ACT004 12.5, 25, 50 mg/kg·d intragastric once daily from day 4 for 1 week, left kidney day 11, FIG. 1A
[5] = ACT004 intragastric 1 week, FIG. 1B
[6] = ACT004 intragastric 1 week, FIG. 1C, statistically significant (p<0.05)
[7] = ACT004 treatment groups, FIG. 3A

Question: For C/C1=C\[C@H]2OC(=O)[C@H](CN3CCN(C)CC3)[C@@H]2CC[C@]2(C)O[C@H]2CCC2=C[C@H](C1)OC2=O [ACT004, (1aS,4Z,7S,9E,10aS,13S,13aS,15aS)-9,15a-dimethyl-13-((4-methylpiperazin-1-yl)methyl)-1a,2,3,8,10a,13,13a,14,15,15a-decahydro-5H-4,7-(metheno) furo [2,3-f]oxireno [2,3-j][1]oxacyclopentadecine-5, 12 (7H)-dione fumarate], which “Masson staining: renal interstitial expansion, extracellular matrix deposition, increased collagen fibers, inflammatory cell infiltration” value [1, 4] is on record?
Answer: The value was “significantly reduced”.

Question: What about the “Immunohistochemical staining: expression of Fibronectin, Collagen I, and α-SMA in kidney tissue” value [1, 5] of the same compound?
Answer: The value was “inhibitory effect”.

Question: What about the “Western blot: protein expression levels of Fibronectin, Collagen I, and α-SMA in kidney tissue” value [1, 6] of the same compound?
Answer: Its value is “inhibit the progression of RF”.

Question: And the “Western blot: expression levels of p-Smad2, p-Smad3, p-Stat3, and p-NFκB in kidney tissues” value ([1]; ACT004 treatment groups, FIG. 2A)?
Answer: The value was “significantly reduced”.

Question: And the “Western blot: expression level of RALB in kidney tissues” value [1, 7]?
Answer: Its value is “significantly reduced”.

Question: What about the “Masson staining: renal interstitial expansion, extracellular matrix deposition, increased collagen fibers, inflammatory cell infiltration” value [2, 4] of the same compound?
Answer: Its value is “significantly reduced”.

Question: And the “Immunohistochemical staining: expression of Fibronectin, Collagen I, and α-SMA in kidney tissue” value [2, 5]?
Answer: The value was “inhibitory effect”.

Question: And the “Western blot: protein expression levels of Fibronectin, Collagen I, and α-SMA in kidney tissue” value [2, 6]?
Answer: The value was “inhibit the progression of RF”.

Question: What about the “Western blot: expression levels of p-Smad2, p-Smad3, p-Stat3, and p-NFκB in kidney tissues” value ([2]; ACT004 treatment groups, FIG. 2B) of the same compound?
Answer: The value was “significantly reduced”.

Question: And the “Western blot: expression level of RALB in kidney tissues” value [2, 7]?
Answer: The value was “significantly reduced”.

Question: What about the “Western blot: protein expression levels of Fibronectin, Collagen I, and α-SMA in TGFβ1-induced renal tubular epithelial cells” value ([3]; TGF-β1 10 ng/uL, 48 h, ACT004 2.5, 5, 10 μM, FIG. 1D, statistically significant (p<0.05)) of the same compound?
Answer: The value was “inhibit the progression of RF”.

Question: And the “Western blot: expression levels of p-Smad2, p-Smad3, p-Stat3, and p-NFκB in renal tubular epithelial cells induced by TGF-β1” value ([3]; different concentrations of ACT004, TGF-β1 induction for 1 h, FIG. 2C, statistically significant)?
Answer: The value was “reduced”.
